How the values were obtained:
Assay type in all cases: cell-based
human Nav1.7 [1] = target: T1, human Nav1.7 (Homo sapiens, UniProt Q15858); assay: Nav 1.7 IWB In Vitro Assay (IonWorks Barracuda); settings: HEK293 cells stably transfected with human Nav 1.7; IonWorks Barracuda population patch-clamp; cells clamped to −20 mV for 4 minutes with compound; 26th pulse; read-out: hNav1.7 IWB IC50
T1 construct: expressed in transfected cells; host or cells: HEK293
In short: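 Population patch clamp of HEK293 cells stably expressing human Nav 1.7: 26 pulses to −20 mV (150 ms, 5 Hz) from −110 mV, then 4 min at −20 mV with compound, 3 s recovery at −110 mV and the train repeated. % inhibition of 26th-pulse peak current vs no compound; IC50 from concentration-response curves.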

human Nav1.7 [2] = target: T1, human Nav1.7; assay: Nav 1.7 In Vitro PatchXpress (PX) Assay; settings: HEK 293 cells stably transfected with human Nav1.7; PatchXpress whole cell voltage clamp; partially inactivated state (holding potential yielding 20 to 50% inactivation); read-out: hNav1.7 PX IC50
In short: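 Whole-cell voltage clamp on HEK 293 cells stably expressing human Nav1.7 (automated patch), holding potential giving 20–50% inactivation; 20 ms pulses to −10 mV at 0.1 Hz. Single compound concentration applied 3 min, peak current inhibition measured; IC50 fitted from 3–5 cells per concentration.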

human Nav1.7 [3] = target: T1, human Nav1.7; assay: Nav 1.7 IWQ In Vitro Assay (IonWorks Quattro); settings: HEK293 cells stably transfected with human Nav 1.7; IonWorks Quattro population patch-clamp; 26th pulse to −20 mV, 5 Hz; cells unclamped 5 to 8 minutes with compound; read-out: hNav1.7 IWQ IC50
In short: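 Population patch clamp on HEK293 cells stably expressing human Nav 1.7: held at −110 mV for three seconds, then 26 pulses of 150 msec to −20 mV at 5 Hz, before and after 5-8 min with one compound concentration. Percent inhibition from peak current at the 26th pulse.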

T1 sequence (Q15858 whole entry): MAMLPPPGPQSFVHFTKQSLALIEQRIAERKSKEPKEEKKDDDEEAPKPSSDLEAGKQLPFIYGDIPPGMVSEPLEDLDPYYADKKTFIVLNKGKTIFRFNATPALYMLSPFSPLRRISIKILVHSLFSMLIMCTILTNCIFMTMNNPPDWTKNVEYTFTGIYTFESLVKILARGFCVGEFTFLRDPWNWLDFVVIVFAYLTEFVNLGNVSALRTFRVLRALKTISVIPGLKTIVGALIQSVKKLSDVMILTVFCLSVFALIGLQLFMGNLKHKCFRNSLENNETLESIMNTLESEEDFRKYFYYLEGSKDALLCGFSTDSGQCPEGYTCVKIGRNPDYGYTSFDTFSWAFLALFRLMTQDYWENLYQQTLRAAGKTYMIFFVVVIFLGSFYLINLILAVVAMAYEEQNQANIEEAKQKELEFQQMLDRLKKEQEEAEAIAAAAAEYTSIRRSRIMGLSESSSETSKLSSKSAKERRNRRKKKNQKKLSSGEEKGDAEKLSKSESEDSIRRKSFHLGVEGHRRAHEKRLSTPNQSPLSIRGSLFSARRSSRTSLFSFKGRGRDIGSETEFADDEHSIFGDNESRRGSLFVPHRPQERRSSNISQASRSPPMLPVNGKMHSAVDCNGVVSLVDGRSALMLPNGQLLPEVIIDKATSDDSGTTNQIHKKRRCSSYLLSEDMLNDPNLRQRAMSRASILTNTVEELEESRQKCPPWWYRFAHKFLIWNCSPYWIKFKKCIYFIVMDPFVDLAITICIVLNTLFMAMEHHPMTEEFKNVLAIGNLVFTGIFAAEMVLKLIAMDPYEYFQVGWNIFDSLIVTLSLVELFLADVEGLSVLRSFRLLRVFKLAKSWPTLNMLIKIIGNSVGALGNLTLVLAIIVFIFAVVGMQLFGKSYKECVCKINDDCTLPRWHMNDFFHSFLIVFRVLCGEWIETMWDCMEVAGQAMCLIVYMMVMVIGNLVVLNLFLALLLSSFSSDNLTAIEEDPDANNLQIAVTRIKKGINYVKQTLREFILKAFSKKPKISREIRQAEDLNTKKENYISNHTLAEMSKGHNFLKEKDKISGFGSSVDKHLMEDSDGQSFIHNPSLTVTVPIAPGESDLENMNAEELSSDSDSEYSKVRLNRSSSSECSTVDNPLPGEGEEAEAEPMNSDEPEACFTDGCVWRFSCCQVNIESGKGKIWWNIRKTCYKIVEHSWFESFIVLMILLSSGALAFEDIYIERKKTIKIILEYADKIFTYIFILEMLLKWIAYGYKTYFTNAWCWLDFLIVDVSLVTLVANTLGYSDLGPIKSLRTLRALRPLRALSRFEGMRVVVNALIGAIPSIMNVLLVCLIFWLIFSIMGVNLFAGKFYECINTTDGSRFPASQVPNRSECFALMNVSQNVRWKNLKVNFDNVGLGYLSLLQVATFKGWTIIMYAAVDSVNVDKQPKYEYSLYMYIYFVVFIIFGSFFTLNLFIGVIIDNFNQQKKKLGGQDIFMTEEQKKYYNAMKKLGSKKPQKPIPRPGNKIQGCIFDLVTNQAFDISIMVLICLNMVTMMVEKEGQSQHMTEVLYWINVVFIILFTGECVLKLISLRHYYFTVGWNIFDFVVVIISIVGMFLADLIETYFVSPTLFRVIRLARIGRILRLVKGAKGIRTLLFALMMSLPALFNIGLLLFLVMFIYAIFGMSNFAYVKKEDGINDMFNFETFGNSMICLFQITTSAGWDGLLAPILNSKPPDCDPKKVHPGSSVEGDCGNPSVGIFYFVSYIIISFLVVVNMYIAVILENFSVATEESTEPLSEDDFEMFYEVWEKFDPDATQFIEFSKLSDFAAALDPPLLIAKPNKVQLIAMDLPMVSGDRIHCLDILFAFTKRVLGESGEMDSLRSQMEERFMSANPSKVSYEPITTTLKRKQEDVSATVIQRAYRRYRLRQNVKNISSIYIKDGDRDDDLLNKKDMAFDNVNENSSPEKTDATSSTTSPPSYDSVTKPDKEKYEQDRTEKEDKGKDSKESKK

| Structure (SMILES) | IC50 (human Nav1.7 [1]) [nM] | IC50 (human Nav1.7 [2]) [nM] | IC50 (human Nav1.7 [3]) [nM] |
| --- | --- | --- | --- |
| COc1cc(-c2cc(F)cc(F)c2)c(F)cc1-n1c2c(ccc1=O)CN(S(=O)(=O)Nc1ccon1)[C@H](C)C2 [Example 3-D-P, P-(7R)-N-3-isoxazolyl-7-methyl-2-oxo-1-(2,3′,5′-trifluoro-5-methoxy-4-biphenylyl)-1,5,7,8-tetrahydro-1,6-naphthyridine-6(2H)-sulfonamide] | 40 | 230 | 40.5 |
| COc1cc(-c2cc(F)cc(Cl)c2)c(F)cc1-n1c2c(ccc1=O)CN(S(=O)(=O)Nc1ncns1)CC2 (single isomer, unassigned) [Example 5-P, P-1-(3′-chloro-2,5′-difluoro-5-methoxy-4-biphenylyl)-2-oxo-N-1,2,4-thiadiazol-5-yl-1,5,7,8-tetrahydro-1,6-naphthyridine-6(2H)-sulfonamide] | 1.5 | 12.3 | 1.6 |
| COc1cc(-c2cc(F)cc(Cl)c2)c(F)cc1-n1c2c(ccc1=O)CN(S(=O)(=O)Nc1ccc(F)cn1)CC2 (racemic) [Example 12-(Rac), (Rac)-1-(3′-chloro-2,5′-difluoro-5-methoxy-4-biphenylyl)-N-(5-fluoro-2-pyridinyl)-2-oxo-1,5,7,8-tetrahydro-1,6-naphthyridine-6(2H)-sulfonamide] | 91.3 | 106 | 81.5 |
| COc1cc(-c2cc(F)cc(Cl)c2)c(F)cc1-n1c2c(ccc1=O)CN(S(=O)(=O)Nc1ncns1)CC2 (racemic) [5-(Rac), (Rac)-1-(3′-chloro-2,5′-difluoro-5-methoxy-4-biphenylyl)-2-oxo-N-1,2,4-thiadiazol-5-yl-1,5,7,8-tetrahydro-1,6-naphthyridine-6(2H)-sulfonamide] | 6.7 | 54.6 | 7.3 |
| COc1cc(-c2cc(F)cc(Cl)c2)c(F)cc1-n1c2c(ccc1=O)CN(S(=O)(=O)Nc1cccc(F)n1)CC2 (racemic) [Example 13-(Rac), (Rac)-1-(3′-chloro-2,5′-difluoro-5-methoxy-4-biphenylyl)-N-(6-fluoro-2-pyridinyl)-2-oxo-1,5,7,8-tetrahydro-1,6-naphthyridine-6(2H)-sulfonamide] | 27.6 | 123 | 33.2 |
| COc1cc(-c2cc(Cl)ccc2C)c(F)cc1-n1c2c(ccc1=O)CN(S(=O)(=O)Nc1ccon1)CC2 (racemic) [9-(Rac), (Rac)-1-(5′-chloro-2-fluoro-5-methoxy-2′-methyl-4-biphenylyl)-N-3-isoxazolyl-2-oxo-1,5,7,8-tetrahydro-1,6-naphthyridine-6(2H)-sulfonamide] | 5.4 | 30.7 | 4.6 |
| COc1cc(-c2cc(F)cc(F)c2)c(F)cc1-n1c2c(ccc1=O)[C@H](C)N(S(=O)(=O)Nc1ccon1)CC2 (single isomer, unassigned) [Example 3-B-P] | 197 | 2080 | 224 |

Second part, the molecule after the results:

| IC50 (human Nav1.7 [1]) [nM] | IC50 (human Nav1.7 [2]) [nM] | IC50 (human Nav1.7 [3]) [nM] | Structure (SMILES) |
| --- | --- | --- | --- |
| 17.5 | 144 | 18.4 | COc1cc(-c2ccc(F)c(F)c2)c(F)cc1-n1c2c(ccc1=O)CN(S(=O)(=O)Nc1cccnn1)CC2 (single isomer, unassigned) [Example 32-P, P-2-oxo-N-3-pyridazinyl-1-(2,3′,4′-trifluoro-5-methoxy-4-biphenylyl)-1,5,7,8-tetrahydro-1,6-naphthyridine-6(2H)-sulfonamide] |
| 24.1 | 78 | 12.3 | COc1cc(-c2cc(OC)c(-n3c4c(ccc3=O)CN(S(=O)(=O)Nc3ccon3)CC4)cc2F)ccc1C (racemic) [Example 58-(Rac), (Rac)-1-(2-fluoro-3′,5-dimethoxy-4′-methyl-4-biphenylyl)-N-3-isoxazolyl-2-oxo-1,5,7,8-tetrahydro-1,6-naphthyridine-6(2H)-sulfonamide] |
| 8.1 | 21.8 | 121 | COc1cc(-c2cc(OC)c(-n3c4c(ccc3=O)CN(S(=O)(=O)Nc3ccon3)CC4)cc2F)ccc1Cl (racemic) [Example 15-(Rac), (Rac)-1-(4′-chloro-2-fluoro-3′,5-dimethoxy-4-biphenylyl)-N-3-isoxazolyl-2-oxo-1,5,7,8-tetrahydro-1,6-naphthyridine-6(2H)-sulfonamide] |
| 30.5 | 161 | 23.7 | COc1cc(-c2ccc(F)c(F)c2)c(F)cc1-n1c2c(ccc1=O)CN(S(=O)(=O)Nc1cccnn1)CC2 (racemic) [Example 32-(Rac), (Rac)-2-oxo-N-3-pyridazinyl-1-(2,3′,4′-trifluoro-5-methoxy-4-biphenylyl)-1,5,7,8-tetrahydro-1,6-naphthyridine-6(2H)-sulfonamide] |
| 37.5 | 197 | 13.3 | COc1cc(-c2ccc(Cl)c(C)c2)c(F)cc1-n1c2c(ccc1=O)CN(S(=O)(=O)Nc1ncccn1)CC2 (single isomer, unassigned) [Example 30-P, P-1-(4′-chloro-2-fluoro-5-methoxy-3′-methyl-4-biphenylyl)-2-oxo-N-2-pyrimidinyl-1,5,7,8-tetrahydro-1,6-naphthyridine-6(2H)-sulfonamide] |
| 269 | 1030 | 137 | COc1nc(-c2cc(F)cc(Cl)c2)c(F)cc1-n1c2c(ccc1=O)CN(S(=O)(=O)Nc1cccnn1)CC2 (racemic) [Example 37, (Rac)-1-(6-(3-chloro-5-fluorophenyl)-5-fluoro-2-methoxy-3-pyridinyl)-2-oxo-N-3-pyridazinyl-1,5,7,8-tetrahydro-1,6-naphthyridine-6(2H)-sulfonamide] |
| 11.5 | 39.3 | 3.6 | COc1cc(-c2ccc(F)c(F)c2)c(F)cc1-n1c2c(ccc1=O)CN(S(=O)(=O)Nc1ccon1)CC2 (single isomer, unassigned) [Example 20-P, P-N-3-isoxazolyl-2-oxo-1-(2,3′,4′-trifluoro-5-methoxy-4-biphenylyl)-1,5,7,8-tetrahydro-1,6-naphthyridine-6(2H)-sulfonamide] |
| 25.6 | 74.2 | 44.4 | COc1cc(-c2cc(F)cc(F)c2)c(F)cc1-n1c2c(ccc1=O)CN(S(=O)(=O)Nc1cccc(F)n1)CC2 (racemic) [Example 14-(Rac), (Rac)-N-(6-fluoro-2-pyridinyl)-2-oxo-1-(2,3′,5′-trifluoro-5-methoxy-4-biphenylyl)-1,5,7,8-tetrahydro-1,6-naphthyridine-6(2H)-sulfonamide] |
| 27.1 | 27.9 | 28.4 | COc1cc(-c2cc(F)cc(Cl)c2)c(F)cc1-n1c2c(ccc1=O)CN(S(=O)(=O)Nc1cccc(F)n1)CC2 (single isomer, unassigned) [Example 13-P, P-1-(3′-chloro-2,5′-difluoro-5-methoxy-4-biphenylyl)-N-(6-fluoro-2-pyridinyl)-2-oxo-1,5,7,8-tetrahydro-1,6-naphthyridine-6(2H)-sulfonamide] |
| 18 | 177 | 4 | COc1cc(-c2ccc(Cl)c(C#N)c2)c(F)cc1-n1c2c(ccc1=O)CN(S(=O)(=O)Nc1ccon1)CC2 (racemic) [Example 35, (Rac)-1-(4′-chloro-3′-cyano-2-fluoro-5-methoxy-4-biphenylyl)-N-3-isoxazolyl-2-oxo-1,5,7,8-tetrahydro-1,6-naphthyridine-6(2H)-sulfonamide] |

From patent US10472356B2, “Bicyclic ketone sulfonamide compounds” (AMGEN INC., priority 2015, dated 2019)
